# Measured values as given in patent US9474790B2, “Stable, protracted GLP-1/glucagon receptor co-agonists for medical use” (Novo Nordisk A/S, priority 2013, dated 2016).
# Numbered stars: 1 amine (or outer) side, 2 acyl side, 3 side chain; on linkers, the order of the positions; unused ones are H or OH. Square brackets hold non-standard residues; d marks the D form. Side chains are listed from the residue outwards. Peptide text beside a SMILES is read from it. * marks the point of attachment. C18 diacid = O=C(O)CCCCCCCCCCCCCCCCC(=O)*; γGlu = O=C(O)[C@H](CCC(=O)[*:2])N[*:1]; Ac4c = NC1(C(=O)O)CCC1; AEEA = NCCOCCOCC(=O)O; Aib = CC(C)(N)C(=O)O
# Target: T1, human GLP-1 receptor (Homo sapiens, UniProt P43220)
# T1 construct: expressed in transfected cells; host or cells: BHK cells (parent BHKTS13), clone FCW467-12A/KZ10-1, with CRE luciferase
# T1 sequence (P43220 24-463): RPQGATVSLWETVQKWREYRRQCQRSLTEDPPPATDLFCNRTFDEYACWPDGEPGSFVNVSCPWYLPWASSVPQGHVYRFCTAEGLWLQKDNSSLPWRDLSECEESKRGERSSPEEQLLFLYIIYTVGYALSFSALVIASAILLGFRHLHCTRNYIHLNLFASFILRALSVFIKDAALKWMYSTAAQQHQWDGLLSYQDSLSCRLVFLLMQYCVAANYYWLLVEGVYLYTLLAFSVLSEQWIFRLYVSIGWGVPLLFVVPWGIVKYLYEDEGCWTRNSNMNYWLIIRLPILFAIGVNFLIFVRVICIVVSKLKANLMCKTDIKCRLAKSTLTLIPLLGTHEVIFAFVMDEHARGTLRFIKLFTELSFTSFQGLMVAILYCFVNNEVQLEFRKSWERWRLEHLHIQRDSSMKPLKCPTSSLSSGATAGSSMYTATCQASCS
# Assay: GLP-1 receptor binding, 125I-GLP-1 displacement SPA on isolated membranes
# Conditions: displacement of 125I-GLP-1 from membranes; read-out: IC50 GLP-1R
# Procedure, shortened: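 SPA displacement of 125I-GLP-1(7-36)NH2 from membranes of BHK cells expressing human GLP-1 receptor, with WGA beads, in 50 mM HEPES, 5 mM EGTA, 5 mM MgCl2, 0.005% Tween 20, pH 7.4. Incubated 2 h at 30°C; IC50 by non-linear regression, run at ≤0.001% or 2.0% final serum albumin.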
row,Compound,IC50 [pM]
1,"CC(C)C[C@H](NC(=O)[C@H](Cc1ccc(O)cc1)NC(=O)[C@H](CCCCN)NC(=O)[C@H](CO)NC(=O)[C@H](CC(C)C)NC(=O)[C@H](CC(=O)O)NC(=O)[C@H](CO)NC(=O)[C@@H](NC(=O)[C@H](Cc1ccccc1)NC(=O)[C@@H](NC(=O)CNC(=O)[C@H](CCC(N)=O)NC(=O)C1(NC(=O)[C@@H](N)Cc2c[nH]cn2)CCC1)[C@@H](C)O)[C@@H](C)O)C(=O)N[C@@H](CCC(=O)O)C(=O)N[C@@H](CO)C(=O)N[C@@H](CCCCN)C(=O)N[C@@H](CCCNC(=N)N)C(=O)N[C@@H](C)C(=O)N[C@@H](CCCNC(=N)N)C(=O)N[C@@H](CCC(=O)O)C(=O)N[C@@H](Cc1ccccc1)C(=O)N[C@H](C(=O)N[C@@H](CCC(N)=O)C(=O)N[C@@H](Cc1c[nH]c2ccccc12)C(=O)N[C@@H](CC(C)C)C(=O)N[C@@H](CC(C)C)C(=O)N[C@@H](CCCCNC(=O)CC[C@H](NC(=O)CC[C@H](NC(=O)[C@H](CO)NC(=O)[C@H](CCC(=O)O)NC(=O)[C@H](CO)NC(=O)CC[C@H](NC(=O)CC[C@H](NC(=O)CCCCCCCCCCCCCCCCC(=O)O)C(=O)O)C(=O)O)C(=O)O)C(=O)O)C(=O)N[C@H](C(N)=O)[C@@H](C)O)C(C)C [Example 68, N^ε28-[(4S)-4-carboxy-4-[[(4S)-4-carboxy-4-[[(2S)-2-[[(2S)-4-carboxy-2-[[(2S)-2-[[(4S)-4-carboxy-4-[[(4S)-4-carboxy-4-(17-carboxyheptadecanoylamino)butanoyl]amino]butanoyl]amino]-3-hydroxypropanoyl]amino]butanoyl]amino]-3-hydroxypropanoyl]amino]butanoyl]amino]butanoyl]-[Acb2,Leu10,Glu15,Lys17,Arg20,Glu21,Leu27,Lys28]-Glucagon amide] (H-H[Ac4c]QGTFTSDLSKYLESKRAREFVQWLLK([γGlu-γGlu-Ser-Glu-Ser-γGlu-γGlu-C18 diacid])T-NH2; N-terminus assumed)",300
2,"CC(C)C[C@H](NC(=O)[C@H](Cc1ccc(O)cc1)NC(=O)[C@H](CCCCN)NC(=O)[C@H](CO)NC(=O)[C@H](CC(C)C)NC(=O)[C@H](CC(=O)O)NC(=O)[C@H](CO)NC(=O)[C@@H](NC(=O)[C@H](Cc1ccccc1)NC(=O)[C@@H](NC(=O)CNC(=O)[C@H](CCC(N)=O)NC(=O)C(C)(C)NC(=O)[C@@H](N)Cc1c[nH]cn1)[C@@H](C)O)[C@@H](C)O)C(=O)N[C@@H](CCC(=O)O)C(=O)N[C@@H](CO)C(=O)N[C@@H](CCCNC(=N)N)C(=O)N[C@@H](CCCNC(=N)N)C(=O)N[C@@H](C)C(=O)N[C@@H](CCCNC(=N)N)C(=O)N[C@@H](CCC(=O)O)C(=O)N[C@@H](Cc1ccccc1)C(=O)N[C@H](C(=O)N[C@@H](CCC(N)=O)C(=O)N[C@@H](Cc1c[nH]c2ccccc12)C(=O)N[C@@H](CC(C)C)C(=O)N[C@@H](CC(C)C)C(=O)N[C@@H](CCCCNC(=O)CC[C@H](NC(=O)CC[C@H](NC(=O)COCCOCCNC(=O)COCCOCCNC(=O)CC[C@H](NC(=O)CC[C@H](NC(=O)CCCCCCCCCCCCCCCCC(=O)O)C(=O)O)C(=O)O)C(=O)O)C(=O)O)C(=O)N[C@H](C(N)=O)[C@@H](C)O)C(C)C [Example 60, N^ε28-[(4S)-4-carboxy-4-[[(4S)-4-carboxy-4-[[2-[2-[2-[[2-[2-[2-[[(4S)-4-carboxy-4-[[(4S)-4-carboxy-4-(17-carboxyheptadecanoylamino)butanoyl]amino]butanoyl]amino]ethoxy]ethoxy]acetyl]amino]ethoxy]ethoxy]acetyl]amino]butanoyl]amino]butanoyl]-[Aib2,Leu10,Glu15,Arg20,Glu21,Leu27,Lys28]-Glucagon amide] (H-H[Aib]QGTFTSDLSKYLESRRAREFVQWLLK([γGlu-γGlu-AEEA-AEEA-γGlu-γGlu-C18 diacid])T-NH2; N-terminus assumed)",200
3,"CC(C)C[C@H](NC(=O)[C@H](Cc1ccc(O)cc1)NC(=O)[C@H](CCCCN)NC(=O)[C@H](CO)NC(=O)[C@H](CC(C)C)NC(=O)[C@H](CC(=O)O)NC(=O)[C@H](CO)NC(=O)[C@@H](NC(=O)[C@H](Cc1ccccc1)NC(=O)[C@@H](NC(=O)CNC(=O)[C@H](CCC(N)=O)NC(=O)C(C)(C)NC(=O)[C@@H](N)Cc1c[nH]cn1)[C@@H](C)O)[C@@H](C)O)C(=O)N[C@@H](CCC(=O)O)C(=O)N[C@@H](CO)C(=O)N[C@@H](CCCNC(=N)N)C(=O)N[C@@H](CCCNC(=N)N)C(=O)N[C@@H](C)C(=O)N[C@@H](CCCNC(=N)N)C(=O)N[C@@H](CCC(=O)O)C(=O)N[C@@H](Cc1ccccc1)C(=O)N[C@H](C(=O)N[C@@H](CCC(N)=O)C(=O)N[C@@H](Cc1c[nH]c2ccccc12)C(=O)N[C@@H](CC(C)C)C(=O)N[C@@H](CC(C)C)C(=O)N[C@@H](CCCCNC(=O)CC[C@H](NC(=O)COCCOCCNC(=O)COCCOCCNC(=O)CC[C@H](NC(=O)CC[C@H](NC(=O)CCCCCCCCCCCCCCCCC(=O)O)C(=O)O)C(=O)O)C(=O)O)C(=O)N[C@H](C(N)=O)[C@@H](C)O)C(C)C [Example 20, N^ε29-[(4S)-4-carboxy-4-[[2-[2-[2-[[2-[2-[2-[[(4S)-4-carboxy-4-[[(4S)-4-carboxy-4-(17-carboxyheptadecanoylamino)butanoyl]amino]butanoyl]amino]ethoxy]ethoxy]acetyl]amino]ethoxy]ethoxy]acetyl]amino]butanoyl]-[Aib2,Leu10,Glu15,Arg20,Glu21,Leu27,Lys28]-Glucagon amide] (H-H[Aib]QGTFTSDLSKYLESRRAREFVQWLLK([γGlu-AEEA-AEEA-γGlu-γGlu-C18 diacid])T-NH2; N-terminus assumed)",400

# The next lines start with the values.
row,IC50 [pM],Compound
1,600,"CC(C)C[C@H](NC(=O)[C@H](Cc1ccc(O)cc1)NC(=O)[C@H](CCCCN)NC(=O)[C@H](CO)NC(=O)[C@H](CC(C)C)NC(=O)[C@H](CC(=O)O)NC(=O)[C@H](CO)NC(=O)[C@@H](NC(=O)[C@H](Cc1ccccc1)NC(=O)[C@@H](NC(=O)CNC(=O)[C@H](Cc1c[nH]cn1)NC(=O)C(C)(C)NC(=O)[C@@H](N)Cc1c[nH]cn1)[C@@H](C)O)[C@@H](C)O)C(=O)N[C@@H](CCC(=O)O)C(=O)N[C@@H](CO)C(=O)N[C@@H](CCCNC(=N)N)C(=O)N[C@@H](CCCNC(=N)N)C(=O)N[C@@H](C)C(=O)N[C@@H](CCCNC(=N)N)C(=O)N[C@@H](CCC(=O)O)C(=O)N[C@@H](Cc1ccccc1)C(=O)N[C@H](C(=O)N[C@@H](CCC(N)=O)C(=O)N[C@@H](Cc1c[nH]c2ccccc12)C(=O)N[C@@H](CC(C)C)C(=O)N[C@@H](CC(C)C)C(=O)N[C@@H](CCCCNC(=O)CC[C@H](NC(=O)CC[C@H](NC(=O)COCCOCCNC(=O)COCCOCCNC(=O)CC[C@H](NC(=O)CCCCCCCCCCCCCCCCC(=O)O)C(=O)O)C(=O)O)C(=O)O)C(=O)N[C@H](C(N)=O)[C@@H](C)O)C(C)C [Example 33, N^ε28-[(4S)-4-carboxy-4-[[(4S)-4-carboxy-4-[[2-[2-[2-[[2-[2-[2-[[(4S)-4-carboxy-4-(17-carboxyheptadecanoylamino)butanoyl]amino]ethoxy]ethoxy]acetyl]amino]ethoxy]ethoxy]acetyl]amino]butanoyl]amino]butanoyl]-[Aib2,His3,Leu10,Glu15,Arg20,Glu21,Leu27,Lys28]-Glucagon amide] (H-H[Aib]HGTFTSDLSKYLESRRAREFVQWLLK([γGlu-γGlu-AEEA-AEEA-γGlu-C18 diacid])T-NH2; N-terminus assumed)"
2,500,"CC(C)C[C@H](NC(=O)[C@H](CC(C)C)NC(=O)[C@H](Cc1c[nH]c2ccccc12)NC(=O)[C@H](CCC(N)=O)NC(=O)[C@@H](NC(=O)[C@H](Cc1ccccc1)NC(=O)[C@H](CCC(=O)O)NC(=O)[C@H](CCCNC(=N)N)NC(=O)[C@H](C)NC(=O)[C@H](CCCNC(=N)N)NC(=O)[C@H](CCCNC(=N)N)NC(=O)[C@H](CO)NC(=O)[C@H](CC(=O)O)NC(=O)[C@H](CC(C)C)NC(=O)[C@H](Cc1ccc(O)cc1)NC(=O)[C@H](CCCCN)NC(=O)[C@H](CO)NC(=O)[C@H](CC(C)C)NC(=O)[C@H](CC(=O)O)NC(=O)[C@H](CO)NC(=O)[C@@H](NC(=O)[C@H](Cc1ccccc1)NC(=O)[C@@H](NC(=O)CNC(=O)[C@H](CCC(N)=O)NC(=O)C(C)(C)NC(=O)[C@@H](N)Cc1c[nH]cn1)[C@@H](C)O)[C@@H](C)O)C(C)C)C(=O)N[C@@H](CC(N)=O)C(=O)N[C@@H](CCCCNC(=O)CC[C@H](NC(=O)CC[C@H](NC(=O)COCCOCCNC(=O)COCCOCCNC(=O)CC[C@H](NC(=O)CCCCCCCCCCCCCCCCC(=O)O)C(=O)O)C(=O)O)C(=O)O)C(N)=O [Example 12, N^ε29-[(4S)-4-carboxy-4-[[(4S)-4-carboxy-4-[[2-[2-[2-[[2-[2-[2-[[(4S)-4-carboxy-4-(17-carboxyheptadecanoylamino)butanoyl]amino]ethoxy]ethoxy]acetyl]amino]ethoxy]ethoxy]acetyl]amino]butanoyl]amino]butanoyl]-[Aib2,Leu10,Arg20,Glu21,Leu27,Lys29]-Glucagon amide] (H-H[Aib]QGTFTSDLSKYLDSRRAREFVQWLLNK([γGlu-γGlu-AEEA-AEEA-γGlu-C18 diacid])-NH2)"
